Data: patent publication US20240279220A1, “INDOLE COMPOUNDS AND METHODS OF USE” (Genzyme Corporation, priority 2021, published 2024)

The compounds below were run on NBD1/3D (assay: Aggregation analysis using differential static light scattering (DSLS), NBD1 thermal stability). Conditions: ΔTagg versus DMSO control; compound at 100 μM.
Format: binding, Human
Procedure: Purified recombinant NBD1 was produced using previously described methods (A. Schmidt, J. L. Mendoza, P. J. Thomas (2011) Biochemical and Biophysical Approaches to Probe CFTR Structure (365-376) M. D. Amaral, K. Kunzelmann (eds.), Cystic Fibrosis, Methods in Molecular Biology 741, Springer Science+Business Media). The effect of test compounds on thermal stability of NBD1 was evaluated by differential static light scattering (DSLS) using the Harbinger Stargazer-384 instrument (Epiphyte Three, Toronto, Canada).
Test compounds were dissolved and diluted to desired concentrations in 100% DMSO. The compounds or DMSO controls (100 nL) were stamped into wells of a […] low volume optical plate (Corning Inc., Corning, NY) using the Echo 555 acoustic liquid handler (Labcyte Inc., San Jose, CA).
NBD1 protein was diluted to 0.2 mg/ml in S200 buffer (50 mM Tris-HCl, 150 mM NaCl, 5 mM MgCl2, 2 mM ATP, 2 mM DTT, pH7.6) containing 1% glycerol. 10 uL of protein solution was aliquoted into the 384-well plate harboring the test compounds and 10 uL mineral oil was overlayed onto the protein solution, using the epMotion robotic liquid handler (Eppendorf North America, Hauppauge, NY). After placing into the Stargazer instrument, the plate was heated at 1° C. per minute to 70° C. Images were captured from 25° C. to 70° C. every 0.5° C. At the end of the experiment run, instrument software integrated image files and analyzed data automatically. A […] regression curve was generated for each well, representing the increase in light scattering over time. A temperature of aggregation (Tagg) was calculated based on the inflection point of the curve. To better compare data across experiments the average Tagg for DMSO control wells was calculated and subtracted from values for wells containing compounds to obtain a “ΔTagg” value. These ΔTagg values reflect stabilizing efficacy of the compounds.

Structure (SMILES) | DSLS NBD1/3D Human Stability delta-T (° C.) @ 100 (μM)
CC(c1cnc(-c2cc(Oc3c(F)cc4[nH]ccc4c3CCP(C)(C)=O)ccc2F)[nH]1)c1cccc(CCC(=O)O)c1F (single isomer, unassigned) [Example 135B, 3-(3-(1-(2-(5-((4-(2-(dimethylphosphoryl)ethyl)-6-fluoro-1H-indol-5-yl)oxy)-2-fluorophenyl)-1H-imidazol-5-yl)ethyl)-2-fluorophenyl)propanoic acid] | C (C: ≤5° C.)
CC(c1c[nH]c(-c2cc(Oc3c(F)cc4[nH]ccc4c3S(C)(=N)=O)ccc2F)n1)c1cccc(CCC(=O)O)c1F (single isomer, unassigned) [Example 136A, 3-(2-fluoro-3-(1-(2-(2-fluoro-5-((6-fluoro-4-(S-methylsulfonimidoyl)-1H-indol-5-yl)oxy)phenyl)-1H-imidazol-4-yl)ethyl)phenyl)propanoic acid] | B (B: 5-10° C.)
CC(c1c[nH]c(-c2cc(Oc3c(F)cc4[nH]ccc4c3S(C)(=N)=O)ccc2F)n1)c1cccc(CCC(=O)O)c1F (single isomer, unassigned) [Example 136B, 3-(2-fluoro-3-(1-(2-(2-fluoro-5-((6-fluoro-4-(S-methylsulfonimidoyl)-1H-indol-5-yl)oxy)phenyl)-1H-imidazol-4-yl)ethyl)phenyl)propanoic acid] | A (A: T ≥ 10° C.)
CC(c1c[nH]c(-c2cc(Oc3c(F)cc4[nH]ccc4c3S(C)(=N)=O)ccc2F)n1)c1cccc(CCC(=O)O)c1F (single isomer, unassigned) [Example 136D, 3-(2-fluoro-3-(1-(2-(2-fluoro-5-((6-fluoro-4-(S-methylsulfonimidoyl)-1H-indol-5-yl)oxy)phenyl)-1H-imidazol-4-yl)ethyl)phenyl)propanoic acid] | B (B: 5-10° C.)
CC(Cc1cccc(C(C)c2cnc(-c3cc(Oc4c(F)cc5[nH]ccc5c4F)ccc3F)[nH]2)c1F)C(=O)O (single isomer, unassigned) [Example 137A, 3-(3-(1-(2-(5-((4,6-difluoro-1H-indol-5-yl)oxy)-2-fluorophenyl)-1H-imidazol-5-yl)ethyl)-2-fluorophenyl)-2-methylpropanoic acid] | B (B: 5-10° C.)
CC(Cc1cccc(C(C)c2cnc(-c3cc(Oc4c(F)cc5[nH]ccc5c4F)ccc3F)[nH]2)c1F)C(=O)O (single isomer, unassigned) [Example 137B, 3-(3-(1-(2-(5-((4,6-difluoro-1H-indol-5-yl)oxy)-2-fluorophenyl)-1H-imidazol-5-yl)ethyl)-2-fluorophenyl)-2-methylpropanoic acid] | B (B: 5-10° C.)
CC(Cc1cccc(C(C)c2cnc(-c3cc(Oc4c(F)cc5[nH]ccc5c4F)ccc3F)[nH]2)c1F)C(=O)O (single isomer, unassigned) [Example 137C, 3-(3-(1-(2-(5-((4,6-difluoro-1H-indol-5-yl)oxy)-2-fluorophenyl)-1H-imidazol-5-yl)ethyl)-2-fluorophenyl)-2-methylpropanoic acid] | C (C: ≤5° C.)
Cc1c(Oc2ccc(F)c(-c3ncc(C(C)c4cccc([C@@H]5C[C@@H]5C(=O)O)c4F)[nH]3)c2)c(F)cc2[nH]ccc12 (single isomer, unassigned) [Example 138A, cis-2-(2-fluoro-3-(1-(2-(2-fluoro-5-((6-fluoro-4-methyl-1H-indol-5-yl)oxy)phenyl)-1H-imidazol-5-yl)ethyl)phenyl)cyclopropane-1-carboxylic acid] | C (C: ≤5° C.)
Cc1c(Oc2ccc(F)c(-c3ncc(C(C)c4cccc([C@@H]5CC5C(=O)O)c4F)[nH]3)c2)c(F)cc2[nH]ccc12 (single isomer, unassigned) [Example 138B, cis-2-(2-fluoro-3-(1-(2-(2-fluoro-5-((6-fluoro-4-methyl-1H-indol-5-yl)oxy)phenyl)-1H-imidazol-5-yl)ethyl)phenyl)cyclopropane-1-carboxylic acid] | C (C: ≤5° C.)
Cc1c(Oc2ccc(F)c(-c3ncc(C(C)c4cccc([C@@H]5C[C@@H]5C(=O)O)c4F)[nH]3)c2)c(F)cc2[nH]ccc12 (single isomer, unassigned) [Example 138C, cis-2-(2-fluoro-3-(1-(2-(2-fluoro-5-((6-fluoro-4-methyl-1H-indol-5-yl)oxy)phenyl)-1H-imidazol-5-yl)ethyl)phenyl)cyclopropane-1-carboxylic acid] | C (C: ≤5° C.)
Cc1c(Oc2ccc(F)c(-c3ncc(C(C)c4cccc([C@H]5C[C@H]5C(=O)O)c4F)[nH]3)c2)c(F)cc2[nH]ccc12 (single isomer, unassigned) [Example 138D, cis-2-(2-fluoro-3-(1-(2-(2-fluoro-5-((6-fluoro-4-methyl-1H-indol-5-yl)oxy)phenyl)-1H-imidazol-5-yl)ethyl)phenyl)cyclopropane-1-carboxylic acid] | C (C: ≤5° C.)
Cc1c(Oc2ccc(F)c(-c3ncc(C(C)c4cccc([C@H]5C[C@@H]5C(=O)O)c4F)[nH]3)c2)c(F)cc2[nH]ccc12 (single isomer, unassigned) [Example 139G, trans-2-(2-fluoro-3-(1-(2-(2-fluoro-5-((6-fluoro-4-methyl-1H-indol-5-yl)oxy)phenyl)-1H-imidazol-5-yl)ethyl)phenyl)cyclopropane-1-carboxylic acid] | C (C: ≤5° C.)
Cc1c(Oc2ccc(F)c(-c3ncc(C(C)c4cccc([C@H]5CC5C(=O)O)c4F)[nH]3)c2)c(F)cc2[nH]ccc12 (single isomer, unassigned) [Example 139H, trans-2-(2-fluoro-3-(1-(2-(2-fluoro-5-((6-fluoro-4-methyl-1H-indol-5-yl)oxy)phenyl)-1H-imidazol-5-yl)ethyl)phenyl)cyclopropane-1-carboxylic acid] | C (C: ≤5° C.)
Cc1c(Oc2ccc(F)c(-c3ncc(C4(c5cccc(CCC(=O)O)c5)CCOC(C)C4)[nH]3)c2)c(F)cc2[nH]ccc12 (single isomer, unassigned) [Example 151, 3-(3-(4-(2-(2-fluoro-5-((6-fluoro-4-methyl-1H-indol-5-yl)oxy)phenyl)-1H-imidazol-5-yl)-2-methyltetrahydro-2H-pyran-4-yl)phenyl)propanoic acid] | B (B: 5-10° C.)
C[C@H]1C[C@](c2cccc(CCC(=O)O)c2)(c2cnc(-c3cc(Oc4c(F)cc5[nH]ccc5c4F)ccc3F)[nH]2)CCO1 (single isomer, unassigned) [Example 152] | B (B: 5-10° C.)
Cc1c(Oc2ccc(F)c(-c3nc(C4(c5cccc(CCC(=O)O)c5)CCOC(C)C4)c[nH]3)c2)c(F)cc2[nH]ccc12 (single isomer, unassigned) [Example 154, 3-(3-(4-(2-(2-fluoro-5-((6-fluoro-4-methyl-1H-indol-5-yl)oxy)phenyl)-1H-imidazol-4-yl)-2-methyltetrahydro-2H-pyran-4-yl)phenyl)propanoic acid] | A (A: T ≥ 10° C.)
Cc1nc(-c2cc(Oc3c(F)cc4[nH]ccc4c3F)ccc2F)[nH]c1C(O)c1cccc(CCC(=O)O)c1F (single isomer, unassigned) [Example 179, 3-(3-((2-(5-((4,6-difluoro-1H-indol-5-yl)oxy)-2-fluorophenyl)-4-methyl-1H-imidazol-5-yl)(hydroxy)methyl)-2-fluorophenyl)propanoic acid] | B (B: 5-10° C.)
Cc1c(Oc2ccc(F)c(-c3ncc(C(C)(O)c4cccc(CCC(=O)O)c4)[nH]3)c2)c(F)cc2[nH]ccc12 (single isomer, unassigned) [Example 215A, 3-(3-(1-(2-(2-Fluoro-5-((6-fluoro-4-methyl-1H-indol-5-yl)oxy)phenyl)-1H-imidazol-5-yl)-1-hydroxyethyl)phenyl)propanoic acid] | B (B: 5-10° C.)
CC(O)(c1cccc(CCC(=O)O)c1)c1cnc(-c2cc(Oc3c(F)cc4[nH]ccc4c3F)ccc2F)[nH]1 (single isomer, unassigned) [Example 216A, 3-(3-(1-(2-(5-((4,6-difluoro-1H-indol-5-yl)oxy)-2-fluorophenyl)-1H-imidazol-5-yl)-1-hydroxyethyl)phenyl) propanoic acid] | B (B: 5-10° C.)
CC(O)(c1cccc(CCC(=O)O)c1)c1cnc(-c2cc(Oc3c(F)cc4[nH]ccc4c3F)ccc2F)[nH]1 (single isomer, unassigned) [Example 216B, 3-(3-(1-(2-(5-((4,6-difluoro-1H-indol-5-yl)oxy)-2-fluorophenyl)-1H-imidazol-5-yl)-1-hydroxyethyl)phenyl) propanoic acid] | A (A: T ≥ 10° C.)
